According to patent publication US11564913B2, “Compositions and methods for treating cancer” (Children's Hospital Medical Center, priority 2019, dated 2023):

Tests used:
[1] = biological target: T1, Rac1 (Homo sapiens, UniProt P63000); assay: Microscale thermophoresis (MST) binding; details: no saturation at highest concentration tested, read-out: Kd, best estimate
T1 construct: His6 (N); made in house
Protocol: FIG. 14: IODVA1 targets Vav3 in vitro and in vivo. (A) Ba/F3 cells expressing empty vector Mieg3 or p190-BCR-ABL1 were treated with vehicle control or IODVA1 (IO1, 3 μM) for 30 min and incubated with GST-Rac and glutathione beads. Beads were washed and the protein complexes were separated on SDS-PAGE and immunoblotted for pVav3. Input Vav3 was used as control. (B) Binding affinity (Kd) between IODVA1 and Vav3 (green), LARG (brown), and RacGDP (blue). […] Error bars=SD; N=3. (C) Quantification of the average number of colonies made by bone marrow wild-type (black) and Vav3^−/− (lilac) p190-BCR-ABL1 leukemic cells treated with vehicle control or IODVA1 (IO1, 1 and 3 μM) (* p≤0.05; ** p≤0.01; *** p≤0.001; ns, not significant). (D) Representative histogram data of the cell cycle analysis of wild-type (black and grey bars) and Vav3^−/− (dark and light lilac) bone marrow cells expressing p190-BCR-ABL and treated with vehicle control or IODVA1 (IO1, 3 μM) for 20 h. (E) Quantification by densitometry of the pVav3 band from FIG. 14A. […]
To test this hypothesis, we measured its binding affinity (Kd) to recombinant Vav3 and Rac1 using microscale thermophoresis (MST); the catalytic domain (DH/PH) of the RhoGEF LARG served as negative control. […] Second, like Vav3, LARG contains a DH/PH domain responsible for the exchange activity such that any non-specific binding to this domain should be detected. […]

[2] = system: MCF7, T47D, and MDA-MB-231 cells; assay: Colony formation in soft agar, breast cancer cells; assay type: cell-based; details: 1 and 3 μM
Protocol: FIG. 4. IODVA1 inhibits proliferation of cancer model cells. (A) IODVA1 is a potent cell proliferation inhibitor. MCF10A, MCF7, MDA-MB-231, and T47D cells were grown in the presence of the indicated IODVA1 concentrations and counted for 4 or up to 7 days. Each dot and bar is the mean±stdev respectively, of 3 independent experiments, with 2 technical replicates in each experiment. (B) Number of colonies made by MCF7, T47D, and MDA-MB-231 cells at the indicated IODVA1 concentrations. Results shown are mean±stdev of 2 independent experiments with 4 technical replicates each. (C) IODVA1 deactivates Ras at late incubation times. […] Quantification summary of 2 independent experiments is presented in the graph. n.s.—not significant, *-p<0.05, **-p<0.01, ****-p<0.0001. (D) IODVA1 inhibits proliferation of ST8814 cells. ST8814 cells were grown in the presence of the indicated IODVA1 concentrations and counted daily for 4 days. Each dot and bar is the mean and standard deviation respectively, of 3 independent experiments.
Applicants tested IODVA1's ability to inhibit the proliferation of cells harboring activated Ras and therefore its ability to recapitulate the compound obtained from the NCI. […] Cells were grown in growth media containing IODVA1 at concentrations between 0.1 and 10 μM or vehicle control and cell number was counted using the trypan blue exclusion method. […]

OC1(c2ccccn2)N=C(Nc2nc3ccccc3[nH]2)N=C1c1ccccn1 (centres unmarked) [IODVA1, (Z)-2-((1H-benzo[d]imidazol-2-yl)imino)-4,5-di(pyridin-2-yl)-2,5-dihydro-1H-imidazol-5-ol]
Kd [1]: ~35.5 µM
number of colonies in soft agar [2]: significantly decreases
